This note sets out measurements from patent US11230541B2, “Heterocyclic compound” (Takeda Pharmaceutical Company Limited, priority 2017, dated 2022).

SMILES strings stand for the structures. Counter-ions that a name gives are not always drawn.

The target in this experiment is T1, NMDA receptor composed of four subunits including 2 sets of heterodimers of NR1 and NR2B (Homo sapiens, UniProt Q13224).
T1 construct: host or cells: HEK293 (tetracycline-induced expression)
T1 sequence (Q13224 27-1484, other chains not shown): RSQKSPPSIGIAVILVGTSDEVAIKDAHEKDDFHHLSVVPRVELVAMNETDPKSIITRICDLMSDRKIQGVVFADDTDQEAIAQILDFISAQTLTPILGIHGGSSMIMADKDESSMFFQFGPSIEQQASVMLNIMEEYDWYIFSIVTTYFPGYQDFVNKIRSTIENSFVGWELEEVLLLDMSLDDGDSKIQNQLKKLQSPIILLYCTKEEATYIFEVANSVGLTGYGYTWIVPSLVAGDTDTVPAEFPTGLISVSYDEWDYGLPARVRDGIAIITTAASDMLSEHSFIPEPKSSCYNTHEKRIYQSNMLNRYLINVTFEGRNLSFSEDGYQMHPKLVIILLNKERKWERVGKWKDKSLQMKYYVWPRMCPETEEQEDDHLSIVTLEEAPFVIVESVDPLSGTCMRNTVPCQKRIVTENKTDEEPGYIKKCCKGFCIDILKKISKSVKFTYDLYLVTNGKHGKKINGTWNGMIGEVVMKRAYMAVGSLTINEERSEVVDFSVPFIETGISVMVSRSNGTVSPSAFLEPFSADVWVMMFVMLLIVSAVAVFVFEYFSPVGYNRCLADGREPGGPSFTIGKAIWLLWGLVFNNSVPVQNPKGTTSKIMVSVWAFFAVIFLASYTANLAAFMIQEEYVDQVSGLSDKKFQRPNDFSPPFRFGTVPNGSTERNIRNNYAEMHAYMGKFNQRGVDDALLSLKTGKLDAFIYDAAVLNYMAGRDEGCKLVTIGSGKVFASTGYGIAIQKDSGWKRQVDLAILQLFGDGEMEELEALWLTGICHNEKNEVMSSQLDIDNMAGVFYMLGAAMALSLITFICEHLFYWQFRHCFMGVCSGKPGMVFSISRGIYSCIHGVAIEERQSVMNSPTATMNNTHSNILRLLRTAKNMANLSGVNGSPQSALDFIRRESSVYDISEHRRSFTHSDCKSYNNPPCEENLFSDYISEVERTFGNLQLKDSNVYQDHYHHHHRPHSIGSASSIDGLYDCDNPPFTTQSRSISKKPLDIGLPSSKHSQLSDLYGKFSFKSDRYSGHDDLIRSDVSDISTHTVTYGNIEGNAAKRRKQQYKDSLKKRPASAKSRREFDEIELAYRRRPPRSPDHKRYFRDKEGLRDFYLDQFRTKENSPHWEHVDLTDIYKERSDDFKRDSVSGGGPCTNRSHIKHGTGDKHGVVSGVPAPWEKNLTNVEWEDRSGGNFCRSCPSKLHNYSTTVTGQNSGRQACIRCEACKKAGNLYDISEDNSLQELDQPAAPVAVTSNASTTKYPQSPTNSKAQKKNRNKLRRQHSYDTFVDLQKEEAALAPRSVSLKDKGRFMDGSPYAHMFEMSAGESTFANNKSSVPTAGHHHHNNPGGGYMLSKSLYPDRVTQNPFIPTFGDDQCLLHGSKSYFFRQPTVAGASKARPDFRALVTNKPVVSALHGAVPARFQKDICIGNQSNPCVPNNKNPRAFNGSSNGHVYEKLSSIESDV
Put plainly: NR2B Ca2+ influx assay (FLIPR, Fluo-4) in HEK293 cells expressing human GRIN1 and GRIN2B. Format: cell-based. Particulars: HEK293, 10 μM final compound concentration, glutamic acid/glycine-induced Ca2+ influx, read-out: inhibitory rate (10 μM compound concentration). An excerpt: To confirm the “antagonistic action on an NMDA receptor containing the NR2B subunit” of the compound of the present invention, human embryonic kidney cell expressing the “NMDA receptor composed of four subunits including 2 sets of heterodimers of NR1 and NR2B”, specifically HEK293 cell expressing human glutamate ionotropic receptor NMDA type subunit 1 (GRIN1) and human glutamate ionotropic receptor NMDA type subunit 2B (GRIN2B), was used and the activation suppressive effect on the receptors was measured.
As an index of the NMDA receptor activation, intracellular calcium ion (Ca^2+) influx caused by the binding of glycine and glutamic acid with NR1 and NR2B, respectively, was used. HEK293 cells were purchased from ChanTest. The cells were cultured in a DMEM/F-12 (COSMO BIO, 10-092-CM) medium added with 10% FBS′(fetal bovine serum, AusGene), 100 units/mL penicillin, 100 μg/mL streptomycin, 500 μg/mL neomycin, 100 μg/mL Zeocin, 5 μg/mL Blasticidin at 37° C., 5% CO2. The cells were detached from flask with trypsin the day before the assay, suspended in a seeding medium (DMEM (Invitrogen, 31053) added with 10% FBS, 100 units/mL penicillin, 100 μg/mL streptomycin) at 8×10^5 cells/mL, seeded by 25 μL per well in a 384-well plate (Falcon, 356663) at 20000 cells/well, and cultured overnight in an incubator. On the day of the assay, tetracycline (Wako Pure Chemical Industries, Ltd., 209-16561) was diluted with the seeding medium at 2 μg/mL, added at […] to the plate seeded with the cells, and cultured for 2 hr in an incubator. Thereafter, the medium was removed, and the cells were washed with 50 μL/well assay buffer (137 mM NaCl, 4 mM KCl, 1.8 mM CaCl2, 10 mM HEPES (pH 7.2), 10 mM Glucose, 0.1% BSA). Then, a loading buffer (assay buffer added with 2.5 uM Fluo-4AM, 2 mM Amaranth, 1 mM Tartrazine) was added at 25 μL/well, and loading was performed in the incubator for 30 min, and at room temperature for 15 min. A solution (25 μL) of the Example compound diluted with the above-mentioned assay buffer at 30 μM (final concentration 10 μM) was added, and the cells were stood for 15 min at room temperature. Using FLIPR (Molecular Devices), 25 μL of an assay buffer containing 30 μM glutamic acid, 30 μM glycine was added, and the fluorescence signal was measured every 3 seconds for 5 min. The inhibitory activity was calculated as a relative activity value (inhibitory rate) that inhibits 100% of the cumulative value of the fluorescence value of a well added with a buffer free of glutamic acid, glycine, relative to the cumulative value of the fluorescence value of each well.
On to `CCOc1ccc2ncn(C)c2c1CNC(=O)c1ccc(C(F)F)s1` [Example 126, 5-(difluoromethyl)-N-((6-ethoxy-1-methyl-1H-benzimidazol-7-yl)methyl)thiophene-2-carboxamide], for which the inhibition at 10 µM turned out to be 88%.

As for `O=C(NCc1c(C2CC2)ccc2[nH]ncc12)c1cc(F)c(OC(F)F)c(F)c1` [Example 153, N-((5-cyclopropyl-1H-indazol-4-yl)methyl)-4-(difluoromethoxy)-3,5-difluorobenzamide], the inhibition at 10 µM was found to be 90%.

For the molecule `O=C(NCc1c(C2CC2)ccc2[nH]ncc12)c1cnc(OC(F)F)c(F)c1` [Example 105, N-((5-cyclopropyl-1H-indazol-4-yl)methyl)-6-(difluoromethoxy)-5-fluoronicotinamide], the inhibition at 10 µM was determined as 93%.

Take `COc1c(F)cc(C(=O)NCc2cccc3[nH]nc(C)c23)cc1F` [Example 270, 3,5-difluoro-4-methoxy-N-((3-methyl-1H-indazol-4-yl)methyl)benzamide]: the inhibition at 10 µM is 67%.

Take `Cc1ccc2[nH]nnc2c1CNC(=O)c1ccc(C(F)(F)F)c(F)c1` [Example 199, 3-fluoro-N-((5-methyl-1H-benzotriazol-4-yl)methyl)-4-(trifluoromethyl)-benzamide]: the inhibition at 10 µM was 92%.

Regarding `COc1ccc2nc(C)n(C)c2c1CNC(=O)c1ccc(Cl)c(F)c1` [Example 248, 4-chloro-3-fluoro-N-((6-methoxy-1,2-dimethyl-1H-benzimidazol-7-yl)methyl)benzamide], the inhibition at 10 µM was 64%.

In the case of `COc1ccc2ncn(C)c2c1CNC(=O)c1ccc(OC(F)(F)F)cc1` [Example 12, N-((6-methoxy-1-methyl-1H-benzimidazol-7-yl)methyl)-4-(trifluoromethoxy)benzamide], the inhibition at 10 µM came to 94%.

`COc1ccc2ncn(C)c2c1CNC(=O)c1ccc(Cl)c(F)c1` [Example 44, 4-chloro-3-fluoro-N-((6-methoxy-1-methyl-1H-benzimidazol-7-yl)methyl)benzamide]: the inhibition at 10 µM is 89%.

Regarding `COc1ccc2ncn(C)c2c1CNC(=O)c1csc(C(F)(F)F)c1` [Example 139, N-((6-methoxy-1-methyl-1H-benzimidazol-7-yl)methyl)-5-(trifluoromethyl)thiophene-3-carboxamide], the inhibition at 10 µM was found to be 91%.

`COc1ccc2nc(C)n(C)c2c1CNC(=O)c1ccc(C(F)F)c(Cl)c1` [Example 250]: the inhibition at 10 µM was 58%.

For `COc1ccc2nc(C)n(C)c2c1CNC(=O)c1ccc(OC(F)F)c(Cl)c1` [Example 244, 3-chloro-4-(difluoromethoxy)-N-((6-methoxy-1,2-dimethyl-lH-benzimidazol-7-yl)methyl)benzamide], the inhibition at 10 µM is 87%.

On to `COCc1ccc2ncn(C)c2c1CNC(=O)c1cnc(OC(F)F)c(F)c1` [Example 281, 6-(difluoromethoxy)-5-fluoro-N-{[6-(methoxymethyl)-1-methyl-lH-benzimidazol-7-yl]methyl}pyridine-3-carboxamide], for which the inhibition at 10 µM is 82%.

Consider `COc1ccc2ncn(C)c2c1CNC(=O)c1cnc(OC(F)F)c(F)c1` [Example 59, 6-(difluoromethoxy)-5-fluoro-N-((6-methoxy-1-methyl-1H-benzimidazol-7-yl)-methyl)nicotinamide], for which the inhibition at 10 µM stood at 94%.

For `COc1ccc2ncn(C)c2c1CNC(=O)c1ccc(C)s1` [Example 32, N-((6-methoxy-1-methyl-1H-benzimidazol-7-yl)methyl)-5-methylthiophene-2-carboxamide], the inhibition at 10 µM stood at 77%.

`COCc1ccc2ncn(C)c2c1CNC(=O)c1ccc(C(F)(F)F)cc1` [Example 280, N-{[6-(methoxymethyl)-1-methyl-1H-benzimidazol-7-yl]methyl}-4-(trifluoromethyl)-benzamide]: the inhibition at 10 µM is 75%.

Regarding `CCc1ccc2ncn(C)c2c1CNC(=O)c1cc(F)c(OC(F)F)c(F)c1` [Example 131, 4-(difluoromethoxy)-N-((6-ethyl-1-methyl-1H-benzimidazol-7-yl)methyl)-3,5-difluorobenzamide], the inhibition at 10 µM amounted to 93%.

Consider `COc1ccc2ncn(C)c2c1CNC(=O)c1ccc(CC(F)(F)F)cc1` [Example 278, N-[(6-methoxy-1-methyl-1H-benzimidazol-7-yl)methyl]-4-(2,2,2-trifluoroethyl)-benzamide], for which the inhibition at 10 µM amounted to 77%.

In the case of `COc1ccc2ncn(C)c2c1CNC(=O)c1cc(Cl)c(F)c(Cl)c1` [Example 49, 3,5-dichloro-4-fluoro-N-((6-methoxy-1-methyl-1H-benzimidazol-7-yl)methyl)benzamide], the inhibition at 10 µM was found to be 69%.

Take `Cc1c(F)cc(C(=O)NCc2c(C3CC3)ccc3[nH]ncc23)cc1F` [Example 97, N-((5-cyclopropyl-1H-indazol-4-yl)methyl)-3,5-difluoro-4-methylbenzamide]: the inhibition at 10 µM amounted to 94%.

As to `O=C(NCc1c(C2CC2)ccc2[nH]ncc12)c1cc(F)c(C(F)F)c(F)c1` [Example 108, N-((5-cyclopropyl-1H-indazol-4-yl)methyl)-(difluoromethyl)-3,5-dlfluorobenzamide], the inhibition at 10 µM worked out at 94%.

Consider `Cc1ccc(C(=O)NCc2c(C3CC3)ccc3[nH]ncc23)cc1` [Example 99, N-((5-cyclopropyl-1H-indazol-4-yl)methyl)-methylbenzamide], for which the inhibition at 10 µM is 91%.

As for `Cc1ccc2ncn(C)c2c1CNC(=O)c1cc(F)c(C(F)(F)F)c(F)c1` [Example 26, N-((1,6-dimethyl-1H-benzimidazol-7-yl)-methyl)-3,5-difluoro-4-(trifluoromethyl)benzamide], the inhibition at 10 µM amounted to 66%.

`COc1c(F)cc(C(=O)NCc2c(C)ccc3[nH]nnc23)cc1F` [Example 197, 3,5-difluoro-4-methoxy-N-((5-methyl-1H-benzotriazol-4-yl)methyl)benzamide]: the inhibition at 10 µM worked out at 96%.

`Cc1ccc(C(=O)NCc2c(C3CC3)ccc3[nH]ncc23)cc1C(F)(F)F` [Example 84, N-((5-cyclopropyl-1H-indazol-4-yl)methyl)-4-methyl-3-(trifluoro-methyl)benzamide]: the inhibition at 10 µM was found to be 91%.

Consider `Cc1ccc2ncn(C)c2c1CNC(=O)c1ccc(OC(F)(F)F)c(Cl)c1` [Example 60, 3-chloro-N-((1,6-dimethyl-1H-benzimidazol-7-yl)-methyl)-4-(trifluoro-methoxy)benzamide], for which the inhibition at 10 µM amounted to 94%.

As to `COCc1ccc2ncn(C)c2c1CNC(=O)c1ccc(OC(F)(F)F)c(F)c1` [Example 284, 3-fluoro-N-{[6-(methoxymethyl)-1-methyl-1H-benzimidazol-7-yl]methyl}-4-(trifluoromethoxy)-benzamide], the inhibition at 10 µM was determined as 95%.

For `COc1ccc(C(=O)NCc2c(C3CC3)ccc3[nH]ncc23)s1` [Example 67, N-((5-cyclopropyl-1H-indazol-4-yl)methyl)-methoxythiophene-2-carboxamide], the inhibition at 10 µM was 92%.

For `Cc1ccc2ncn(C)c2c1CNC(=O)c1ccc(C(F)F)cc1` [Example 157, 4-(difluoromethyl)-N-((1,6-dimethyl-1H-benzimidazol-7-yl)methyl)benzamide], the inhibition at 10 µM was 85%.

For `COc1ccc2ncn(C)c2c1CNC(=O)c1ccc(C(F)(F)F)s1` [Example 162, N-((6-methoxy-1-methyl-1H-benzimidazol-7-yl)methyl)-5-(trifluoromethyl)-thiophene-2-carboxamide hydrochloride], the inhibition at 10 µM stood at 92%.

In the case of `COc1ccc2ncn(C)c2c1CNC(=O)Nc1cccc(C)c1` [Example 215, 1-((6-methoxy-1-methyl-1H-benzimidazol-7-yl)methyl)-3-(3-methylphenyl)urea], the inhibition at 10 µM was 53%.

Take `Cc1ccc2ncn(C)c2c1CNC(=O)c1csc(C(F)F)c1` [Example 142, 5-(difluoromethyl)-N-((1,6-dimethyl-1H-benzimidazol-7-yl)methyl)thiophene-3-carboxamide]: the inhibition at 10 µM was 85%.

Consider `O=C(NCc1cccc2[nH]ncc12)c1ccc(C(F)F)cc1` [Example 177, 4-(difluoromethyl)-N-(1H-indazol-4-ylmethyl)benzamide], for which the inhibition at 10 µM was 52%.
